From patent US20160346249A1 (priority 2012, published 2016)

Experiments:
[1] = NADPH dependent metabolism, human liver microsomes; type: in vitro ADME
Procedure: Bicifadine (10 μM) was used as the positive control and the formation of the lactam metabolites of bicifadine (M-12) was monitored.

[2] = system: FMO, human liver microsome (HLM); test: FMO dependent metabolism (pre-incubation temperature), human liver microsomes
Procedure: The microsomal incubation mixtures (ca. 0.2 mL) were prepared in triplicate in 0.1M potassium phosphate buffer (pH 7.4) containing 0.25 mg/mL microsomal protein (RLM and HLM), 1 mM EDTA, 4 mM MgCl2, and […]. Incubation mixtures were pre-incubated aerobically in a shaking water bath at 37° C. and 45° C. respectively for ca. 5 minutes. The reaction was initiated by the addition of NADPH (final concentration of 1 mM). […] For the positive controls, benzydamine (Sigma-Aldrich, St. Louis, Mo.) (final concentration 200 μM) was used in the incubation mixture. For the negative controls, water was used in the incubation mixtures instead of microsome protein. The mixtures were kept at ca. −20° C. before analysis by LC-MS/MS.
The incubation of benzydamine (positive control, 200 μM) was carried out concurrently and the formation of benzydamine N-oxide was monitored by LC-MS/MS.

[3] = Acute intravenous or oral mouse bioavailability study; type: in vivo; details: plasma, fasted male mice, oral 6 mg/kg vs IV 5 mg/kg
Procedure: Fasted male mice were used in this study. Concentrations were determined using an LC/MS/MS assay following liquid-liquid extraction of plasma samples. Bioavailability was calculated using the mean normalized AUC0-∞ values obtained following oral administration of 6 mg/kg relative to the mean normalized AUC0-∞ at 5 mg/kg IV.

Male rat fertility study = test: Male rat fertility study
Procedure: Physical signs, body weight, and food consumption were recorded periodically. Males were housed for up to 10 nights 1:1 with untreated females following approximately 10 weeks of treatment. Mating was confirmed by daily examination of females for the presence of a vaginal copulatory plug or sperm in a vaginal lavage. The day of observing a seminal plug and/or sperm was considered GD 0. Females were euthanized on GD 15, 16, or 17 and the uterus of each female rat was examined to determine pregnancy status. Corpora lutea per female were counted. Uterine implantations were counted, and each was classified as a live fetus, dead fetus, or a resorption. At termination, the left cauda epididymis from males were weighed, and frozen. Subsequently, these tissues were prepared and analyzed for sperm number. At necropsy, a sperm suspension from the mid-region of the left vas deferens of each male was prepared and evaluated for percent motile sperm (from ≧150 cells per male).

[4] = Female rat fertility study
Procedure: Physical signs, body weight, and food consumption were recorded periodically. Females were housed for up to 20 nights 1:1 with untreated males following 3 weeks of treatment. During cohabitation, vaginal lavages were performed daily. The presence of sperm in the lavage or a vaginal plug was considered positive evidence of mating. […] The day of confirmed mating was considered GD 0. Females with a confirmed mating were euthanized between GD 15 and 17. The uterus of each female was examined to determine pregnancy status. If there was no gross evidence of pregnancy, the uterus was stained with ammonium sulfide to visualize any early implantation sites. Corpora lutea per female were counted. Uterine implantations were counted, and each was classified as a live fetus, dead fetus, or a resorption. Fetuses were euthanized by rapid induction of hypothermia and discarded without further examination.

[5] = system: Salmonella typhimurium and Escherichia coli tester strains; test: Bacterial reverse mutation assay (Ames); type: cell-based; details: up to 5000 μg/plate, with and without S9
[6] = Single-dose (25 mg) food effect crossover study in 24 men (DOV 947-003); type: in vivo, human; details: for AUC(0-inf) / AUC(0-t) / Cmax / Tmax / half-life: male, human, in vivo, po, single oral dose 25 mg, 24 healthy male subjects
in vitro = in vitro ADME; details: human, Caco-2, pH 7.4
Procedure: (§1) (Kalamazoo, Mich.). […] Receiver solutions consisted of buffer only. Sequential samples of transported solute are taken at 20 minute intervals in duplicate over 2 hours and the concentration of the transported compound was determined by HPLC-UV/MS. Test sample concentration is determined by LC/MS. Permeability coefficients are calculated for each sampling interval, and averages from the intervals were determined. The apparent permeability coefficient Papp is calculated from the equation where dQ/dt is the rate of permeation of drug across the cells, C0 is the original concentration in donor compartment at time zero, and A is the area of the cell monolayer. Mass balance in the system is ascertained by comparing the sum of transported solute and remaining donor solute to the starting solution concentration. The integrity of the monolayers is verified by monitoring Lucifer yellow permeation and the known P-glycoprotein substrate […] is used as a positive control.

Caco-2 cells = test: in vitro; type: in vitro ADME; details: human, Caco-2, 2 h, 10 μM, pH 7.4
Procedure: as §1

in vivo = details: Crl:CD-1(ICR) BR, mouse, po; for AUC(0-t): AUC0-24

Compound: O=C1NCC2(c3ccc(Cl)c(Cl)c3)CC12 (stereo not shown) [EB-10101, 5-(3,4-dichloro-phenyl)-3-aza-bicyclo[3.1.0]hexan-2-one]
- amount formed with NADPH vs without NADPH ([1]; HLM, from EB-1010 10 μM): ~2 fold
- share of lactam formed by enzymes other than CYPs or FMOs ([1]; human liver microsomes): about 50%
- FMO mediation of formation [2]: not FMO-mediated in humans

Compound: Clc1ccc([C@]23CNC[C@H]2C3)cc1Cl [amitifadine, (+)-1-(3,4-dichlorophenyl)-3-azabicyclo[3.1.0]hexane]
- bioavailability [3]: ~16%
- decrease in sperm count/g cauda epididymis (Male rat fertility study; 13 mg/kg/day): −18%
- decreased mean body weight gain (Male rat fertility study; 13 mg/kg/day): 7%
- decreases in fecundity and fertility indices (Male rat fertility study; 13 mg/kg/day): −9%
- decrease in percent motile sperm (Male rat fertility study; 39 mg/kg/day): −33%
- decreased mean body weight gain (Male rat fertility study; 39 mg/kg/day): 9%
- decreased sperm count/g cauda epididymis (Male rat fertility study; 39 mg/kg/day): −44%
- decreases in fecundity and fertility indices (Male rat fertility study; 39 mg/kg/day): −9%
- decreased mean food consumption (Male rat fertility study; 39 mg/kg/day, first week): −60%
- mean body weight loss (Male rat fertility study; 39 mg/kg/day, initial week): -24 g
- NOEL general and reproductive toxicity (Male rat fertility study; male, Crl:CD(SD) IGS BR, rat, in vivo, 14 weeks): 4 mg/kg/day
- body weight loss ([4]; 34 mg/kg/day, first 4 days): -26 g
- decreased food consumption ([4]; 34 mg/kg/day, first 4 days): −50%
- NOEL reproductive performance ([4]; female rats): ≥ 34 mg/kg/day
- NOEL general toxicity ([4]; female, Crl:CD(SD), rat, in vivo): 9 mg/kg/day
- bacterial reverse mutation assay outcome [5]: negative in the bacterial reverse mutation assay
- effect of food on exposure ([6]; fed vs fasted): no effect of food on exposure
- AUC(0-inf) ([6]; Fasted): 1290 ng·h/mL
- AUC(0-t) ([6]; Fasted): 1200 ng·h/mL
- Cmax ([6]; Fasted): 272 ng/mL
- Tmax ([6]; Fasted): 0.98 h
- half-life ([6]; Fasted): 3.42 h
- AUC(0-inf) ([6]; Fed): 1420 ng·h/mL
- AUC(0-t) ([6]; Fed): 1320 ng·h/mL
- Cmax ([6]; Fed): 224 ng/mL
- Tmax ([6]; Fed): 2.57 h
- half-life ([6]; Fed): 3.71 h
- recovery at 2 h, 10 μM (in vitro): 62%
- Mass balance, AP→BL (Caco-2 cells): 62%
- Mass balance, BL→AP (Caco-2 cells): (88%)
- AUC(0-t) (in vivo; female, 10 mg/kg/day): 2490 ng·h/mL
- Cmax (in vivo; female, 10 mg/kg/day): 323 ng/mL
- Tmax (in vivo; female, 10 mg/kg/day): 2 h
- AUC(0-t) (in vivo; female, 30 mg/kg/day): 9920 ng·h/mL
- Cmax (in vivo; female, 30 mg/kg/day): 1140 ng/mL
- Tmax (in vivo; female, 30 mg/kg/day): 2 h
- AUC(0-t) (in vivo; female, 100 mg/kg/day): 20200 ng·h/mL
- Tmax (in vivo; female, 100 mg/kg/day): 2 h
- Cmax (in vivo; female, 150 mg/kg/day): 4940 ng/mL
- Tmax (in vivo; female, 150 mg/kg/day): 2 h
- AUC(0-t) (in vivo; male, 10 mg/kg/day): 1970 ng·h/mL
- Cmax (in vivo; male, 10 mg/kg/day): 261 ng/mL
- Tmax (in vivo; male, 10 mg/kg/day): 1 h
- AUC(0-t) (in vivo; male, 30 mg/kg/day): 12800 ng·h/mL
- Cmax (in vivo; male, 30 mg/kg/day): 1060 ng/mL
- Tmax (in vivo; male, 30 mg/kg/day): 1 h
- AUC(0-t) (in vivo; male, 100 mg/kg/day): 22300 ng·h/mL
- Cmax (in vivo; male, 100 mg/kg/day): 3900 ng/mL
- Tmax (in vivo; male, 100 mg/kg/day): 2 h
- AUC(0-t) (in vivo; male, 150 mg/kg/day): 71100 ng·h/mL
- Cmax (in vivo; male, 150 mg/kg/day): 5610 ng/mL
- Tmax (in vivo; male, 150 mg/kg/day): 1 h
